For one data set, the target named is T1, monomeric variant MTTR (Homo sapiens, UniProt P02766, F107M/L130M).
T1 construct: made in house; host or cells: Escherichia coli Rosetta(DE3) pLysS, pET24(+) vector
The data set is described as follows: Binding of inhibitors to MTTR (unbound fraction by HPLC-MS). As to conditions: apparent affinity for all MTTR species in solution (binding to aggregated species not excluded), 0.5 mg/ml MTTR with increasing combined R4PAm and R4PTm, 37 °C, 18 h, 10 mM sodium acetate pH 7.4, 100 mM KCl, 10 mM EDTA, one-site specific binding (GraphPad Prism 6), read-out: apparent binding constant (KD). How it is done:
The soluble unbound fraction of inhibitors after incubation with the monomeric variant MTTR ([40]) was quantified by HPLC-MS. Samples were made as follows. Soluble TTR at a fixed concentration of 0.5 mg/ml was incubated at 37 °C for 18 h in 10 mM sodium acetate (pH 7.4), 100 mM KCl, 10 mM EDTA with increasing quantities of combined R4PAm and R4PTm. The aggregated fraction was removed by 0.22-μm filtration. The protein fraction containing soluble TTR and inhibitor-bound complexes was then removed by acid precipitation with 1% acetic acid and consecutive ultracentrifugation at 90,000 rpm for 30 min. Neither 0.22-μm filtration nor acid precipitation affected the concentration of the unbound soluble fraction of the peptide inhibitors (data not shown). The unbound soluble fraction of inhibitors was subjected to size exclusion HPLC followed by mass spectrometry. […]
(§1) FIGURE 6. […] A, midpoint temperatures of the thermal unfolding transition (Tm) of wild-type TTR at different conditions were determined by differential scanning calorimetry. […] The unbound fraction of inhibitors was analyzed by HPLC-MS. […] TTR aggregation (TTR agg.) was measured by absorbance at 400 nm with the initial protein amount normalized to 100%. mAU, milli-absorbance units; N.A., not applicable. […]

For the next data set, the system named is WT TTR. In words: Differential scanning calorimetry of WT TTR with T4 and/or inhibitors. The data set is classed as binding, human. As to conditions: versus WT TTR alone (no T4 before addition); 5:1 molar ratio to TTR monomer; 3.5 M guanidinium chloride, pH 4.3. Here is the method: Data were taken with a DSC-II differential scanning calorimeter (Calorimetry Sciences Corp., Lindon, UT). The midpoint temperatures of the thermal unfolding transition (Tm) of wild type and mutants were determined. Thermal denaturation of TTR was irreversible under our conditions ([1], [38]), and absolute thermodynamic parameters were not determined. […] The experiments were performed in 3.5 M guanidinium hydrochloride to depress melting below 100 °C; this guanidinium concentration also solubilized thyroxine. Protein samples were thawed on ice and filtered, and the concentration was measured by UV-visible absorption. Protein samples were diluted to 1 mg/ml in 3.5 M guanidinium chloride, 100 mM sodium acetate (pH 4.3), 100 mM potassium chloride, 1 mM EDTA. A volume of 700 μl of each protein sample was prepared in a 1.5-ml microcentrifuge tube and degassed for 5 min under vacuum while stirring. The reference cell contained only buffer components. […]
as §1
(In general: Differential scanning calorimetry records heat flow against a reference as temperature is scanned.)

Data set [1] in a line: Fibril formation of TTR peptides in isolation (TEM). The data set is classed as physicochemical. As to conditions: PBS pH 7.4, 37 °C, no shaking; TEM after 7 days (methods: incubated 2 weeks); peptide concentration 0.5-17 mM. Here is the method:
Following dissolution, samples were filtered through a 0.2-μm filter and incubated at 37 °C with no shaking for 2 weeks.
TEM was performed to visualize the fibril formation of TTR proteins and peptides. 5 μl of the sample was spotted onto freshly glow-discharged, carbon-coated EM grids (Ted Pella, Redding, CA). After 3 min of incubation, grids were rinsed three times with 5 μl of distilled water and then stained with 2% uranyl acetate for 2 min. Grids were examined with a T12 Quick CryoEM and CryoET (FEI) transmission electron microscope at an accelerating voltage of 120 kV. Digital images were recorded using a Gatan 2,048 × 2,048 charge-coupled device camera.
FIGURE 2. β-Strand F as an aggregation-driving segment in TTR suitable for aggregation inhibitor design. […] Histograms show percentage of TTR aggregation using WT TTR to normalize to 100%. The aggregation was measured by absorbance of the samples at 400 nm after 4 days of incubation at 37 °C and pH 4.3 with no shaking. […]
FIGURE 3. β-Strand H as a second aggregation-driving segment suitable as a target for aggregation inhibitor design. A, residue solvent-accessible surface area (ASA; Å^2) of TTR was calculated by Areaimol using the structure of WT TTR in three different conformations: tetramer (blue), dimer (black), and monomer (green). […]

Data set [2] has as its system transthyretin amyloidosis. The settings on record: background statement, refs 16-18 cited in the next sentence; cited from earlier work. The source says:
Currently, there is no cure for transthyretin amyloidosis, and the treatment for familial cases of ATTR is liver transplantation. […] Several other therapeutics are currently in clinical trials, including other tetramer stabilizers such as diflunisal and RNAi therapies that cause a decrease in the production of TTR protein ([16][–][18]). Additional approaches are needed to prevent ATTR, and here we explore the use of peptide inhibitors that block aggregation of TTR.

Where a SMILES comes first, the peptide text is derived from it. [ ]: non-standard residue; d: D form. NMeE = CN[C@@H](CCC(=O)O)C(=O)O; NMeA = CN[C@@H](C)C(=O)O

The text below walks through data of paper PMC4661406, “Uncovering the Mechanism of Aggregation of Human Transthyretin” (The Journal of Biological Chemistry, 2015).

Regarding `CC(C)[C@H](NC(=O)[C@@H](NC(=O)[C@H](CCC(=O)O)N(C)C(=O)[C@H](C)NC(=O)[C@H](Cc1c[nH]cn1)NC(=O)[C@H](CCC(=O)O)NC(=O)[C@H](Cc1c[nH]cn1)NC(=O)[C@H](Cc1ccccc1)NC(=O)[C@@H]1CCCN1C(=O)[C@H](CCCNC(=N)N)NC(=O)[C@H](CCCNC(=N)N)NC(=O)[C@H](CCCNC(=N)N)NC(=O)[C@@H](N)CCCNC(=N)N)C(C)C)C(=O)N[C@@H](Cc1ccccc1)C(=O)N[C@H](C(=O)N[C@@H](C)C(=O)O)[C@@H](C)O` [R4PAm] (H-RRRRPFHEHA[NMeE]VVFTA-OH), at monomeric variant MTTR, the Kd amounted to 17.9 ± 6.1 µM.
Still for that read-out and setting: then `CC(C)[C@H](NC(=O)[C@@H](NC(=O)[C@H](C)N(C)C(=O)[C@@H](NC(=O)[C@@H](NC(=O)[C@H](CO)NC(=O)[C@H](Cc1ccc(O)cc1)NC(=O)[C@H](CO)NC(=O)[C@H](Cc1ccc(O)cc1)NC(=O)[C@@H]1CCCN1C(=O)[C@H](CCCNC(=N)N)NC(=O)[C@H](CCCNC(=N)N)NC(=O)[C@H](CCCNC(=N)N)NC(=O)[C@@H](N)CCCNC(=N)N)[C@@H](C)O)[C@@H](C)O)C(C)C)C(=O)N[C@H](C(=O)N[C@@H](CC(N)=O)C(=O)O)[C@@H](C)O` [R4PTm] (H-RRRRPYSYSTT[NMeA]VVTN-OH), with 19.3 ± 6.7 µM.
Take `NC(Cc1cc(I)c(Oc2cc(I)c(O)c(I)c2)c(I)c1)C(=O)O` (stereo not drawn) [T4, thyroxine]: in the data set with WT TTR, the “increase in Tm of WT TTR on addition” value worked out at 10.8 °C.
Regarding “TAVVTN [6-residue TTR segment 119-124 from strand H]”, the “fibril formation in isolation” value in data set [1] was “form fibrils in solution by self-aggregation”.
Turning to “AEVVFT [6-residue TTR segment 91-96 from strand F]”, the “fibril formation in isolation” value in data set [1] is “form fibrils in solution by self-aggregation”.
As for `O=C(O)c1ccc2nc(-c3cc(Cl)cc(Cl)c3)oc2c1` [Tafamidis], in data set [2], the “disease progression” value is reported as “delays progression of the disease”.
